Measurements taken from patent US8304455B2, “Compositions and methods of their use for improving the condition and appearance of skin” (Avon Products, Inc, priority 2004, dated 2012).
Values joined by “and” are separate entries in the source; they are usually repeats but may differ in a detail not shown here. Equal values may be shown once.

Experiments:
Type in all cases: cell-based
Conditions in all cases: normal human epidermal keratinocytes; transcript numbers normalized to vehicle control; replicate values
Beta-catenin = test: PCR gene expression, Beta-catenin
Method: (§1) A vial of cryopreserved normal human epidermal keratinocytes (Adult or Neonatal) was removed from liquid N2 and placed in a 37° C. water bath for 1-2 minutes, or until completely thawed. The vial was then removed from the water bath and the excess water was wiped off. The vial was placed into a cell culture hood for sterility. The vial was wiped with 70% ethanol to air dry for 30 seconds. While in the cell culture hood, the cells were removed from the vial and placed into a 50 ml tube. The appropriate growth media (5 ml) was added drop wise while agitating the tube, allowing uniform mixture of the cells and medium while limiting cell death due to osmotic changes caused by freezing media, Medium (25 ml) was added to the 50 ml tube to bring the volume up to 30 ml. Into two 75 cm2 flasks, medium/cell solution (15 ml) was added, or to six 25 cm2 flasks, medium (5 ml) was added. Flasks were recapped and placed horizontally in a 37° C. humidified incubator with 5% CO2 for 24 hours. After 24 hours, the old medium was aspirated and fresh room temperature growth medium (15 ml) was added onto the cells. Prior to adding the fresh growth medium, it was brought up to room temperature using a room temperature water bath without the cover. The flasks containing cells with fresh media were placed back into the 37° C. incubator. Flasks containing the old media was replaced with fresh media repeatedly until the desired confluence (75%) was reached.
(§2) When the cells reached the desired confluency, they were removed from the incubator and the media was aspirated off using a vacuum trap. Hank's Buffered Saline Solution (HBSS; 10 ml of 1X; Mediatech, Inc.; Herndon, Va.) was placed into the flask and the entire surface area rinsed. The HBSS was then aspirated. Trypsin (1X; Mediatech, Inc.) was added in a 5 ml volume. The flasks were placed back into the incubator for 8 minutes. The flasks were taken from the incubator and 15 ml of Trypsin Neutralizing Solution (1X; Cascade Biologics; Portland, Oreg.) was added to each flask to neutralize the trypsin. […]

Collagen 4 = test: PCR gene expression, Collagen 4
Method: as §1, §2

Collagen 7 = test: PCR gene expression, Collagen 7
Method: as §1, §2

Frizzled 10 = test: PCR gene expression, Frizzled 10
Method: as §1, §2

Estrogen Receptor alpha = test: PCR gene expression, Estrogen Receptor alpha
Method: as §1, §2

Hyaluronic acid synthase = test: PCR gene expression, Hyaluronic acid synthase; parameters: key: (—): Not statistically significant
Method: as §1, §2

Row | Compound | Beta-Catenin Transcript # (Beta-catenin) | Collagen 4 Transcript # (Collagen 4) | Collagen 7 Transcript # (Collagen 7) | Frizzled 10 Transcript # (Frizzled 10) | Estrogen Receptor alpha Transcript # (Estrogen Receptor alpha) | Hyaluronic acid synthase Transcript # (Hyaluronic acid synthase)
1 | CCNC(=O)CC[C@H](N)C(=O)O [L-Theanine, L-theanine] | 10.31 and 8.678 (2×) | 10.79 and 9.561 and 10.49 | 12.87 and 10.72 and 11.44 | 17.68 and 16.48 and 17.08 | 13.03 and 12.39 and 7.627 | 10.53 and 7.971 and 8.113
2 | CSC[C@H](N)C(=O)O [S-Methyl-L-Cysteine] | 8.657 and 10.39 and 9.955 | 9.845 and 10.83 and 9.353 | 14.83 and 16.55 (2×) | 18.65 and 16.26 and 18.41 | 6.087 and 5.073 | —
3 | N[C@@H](CSc1ccccc1)C(=O)O [S-Phenyl-L-Cysteine] | 14.67 and 15.49 and 11.41 | 7.416 and 8.343 and 8.807 | 35.46 and 34.38 and 30.09 | 34.68 and 26.67 and 30.62 | 8.12 and 10.99 and 8.598 | 3.637 (2×) and 3.423
